According to US10570140B2, “Selective inhibitors of protein arginine methyltransferase 5 (PRMT5)” (Prelude Therapeutics, Incorporated, priority 2017, dated 2020):

These compounds were tested against PRMT5/MEP50 complex (Homo sapiens (Human), UniProt O14744) (assay: PRMT5 biochemical assay (3H-SAM filter plate, histone H2A substrate)). Details: not given.
Procedure: Biochemical Assay Protocol
Compounds were solubilized and 3-fold diluted in 100% DMSO. […] Standard reactions were performed in a total volume of 50 μl in assay buffer, with histone H2A (5 μM final) as substrate. To this was added the PRMT5/MEP50 complex diluted to provide a final assay concentration of 5 nM and the compounds were allowed to preincubate for 15 to 20 minutes at room temperature. The reaction was initiated by adding S-[3H-methyl]-adenosyl-L-methionine (PerkinElmer) to final concentration of 1 μM. Following a 60 minutes incubation at 30° C., the reaction was stopped by adding 100 μL of 20% TCA. Each reaction was spotted onto filter plate (MultiScreen FB Filter Plate, Millipore), and washed 5 times with PBS buffer, Scintillation fluid was added to the filter plate and read in a scintillation counter. IC50 values were determined by fitting the data to the standard 4 parameters with Hill Slope using GraphPad Prism software.

PRMT5/MEP50 complex, sequence (O14744 whole entry): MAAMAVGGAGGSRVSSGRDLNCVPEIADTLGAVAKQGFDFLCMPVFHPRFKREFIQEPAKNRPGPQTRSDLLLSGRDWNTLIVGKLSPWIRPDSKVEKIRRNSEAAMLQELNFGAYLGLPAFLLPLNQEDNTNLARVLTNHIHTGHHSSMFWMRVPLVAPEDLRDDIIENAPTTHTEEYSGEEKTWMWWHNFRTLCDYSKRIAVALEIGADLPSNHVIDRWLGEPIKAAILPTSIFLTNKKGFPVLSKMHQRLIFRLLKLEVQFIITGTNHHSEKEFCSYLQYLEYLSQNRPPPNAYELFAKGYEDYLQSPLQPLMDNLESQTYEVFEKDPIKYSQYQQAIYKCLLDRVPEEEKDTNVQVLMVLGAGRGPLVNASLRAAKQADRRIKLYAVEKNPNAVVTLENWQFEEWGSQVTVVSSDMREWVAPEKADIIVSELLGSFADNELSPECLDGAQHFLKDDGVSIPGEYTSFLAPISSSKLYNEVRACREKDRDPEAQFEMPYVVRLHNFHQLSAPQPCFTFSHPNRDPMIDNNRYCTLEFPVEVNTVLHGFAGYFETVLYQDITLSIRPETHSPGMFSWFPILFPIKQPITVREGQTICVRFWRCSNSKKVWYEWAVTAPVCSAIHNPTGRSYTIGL
PRMT5/MEP50 complex, sequence (Q9BQA1 whole entry partner): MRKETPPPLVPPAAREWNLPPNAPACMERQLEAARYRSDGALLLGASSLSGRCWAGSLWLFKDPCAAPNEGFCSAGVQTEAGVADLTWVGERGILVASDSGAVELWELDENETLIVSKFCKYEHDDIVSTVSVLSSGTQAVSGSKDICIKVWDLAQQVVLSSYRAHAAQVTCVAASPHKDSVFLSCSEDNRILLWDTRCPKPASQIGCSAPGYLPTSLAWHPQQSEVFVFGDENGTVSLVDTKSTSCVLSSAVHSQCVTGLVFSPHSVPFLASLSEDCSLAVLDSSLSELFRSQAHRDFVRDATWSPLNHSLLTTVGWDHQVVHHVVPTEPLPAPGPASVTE

SMILES | IC50
CO/N=c1\[nH]cnc2c1ccn2[C@@H]1O[C@H](COc2ccc3ccc(N)nc3c2)[C@@](C)(O)[C@H]1O [Example 32, 7-((2R,3R,4S,5R)-5-(((2-aminoquinolin-7-yl)oxy)methyl)-3,4-dihydroxy-4-methyltetrahydrofuran-2-yl)-3,7-dihydro-4H-pyrrolo[2,3-d]pyrimidin-4-one O-methyloxime] | 10 nM

Same assay, conditions: PRMT5/MEP50 5 nM, histone H2A 5 μM, SAM 1 μM; read-out: PRMT5 IC50

SMILES | IC50
C=C[C@@]1(O)[C@@H](COc2ccc3ccc(N)nc3c2)O[C@@H](n2ccc3c(N)ncnc32)[C@@H]1O [Example 4, (2R,3S,4R,5R)-5-(4-amino-7H-pyrrolo[2,3-d]pyrimidin-7-yl)-2-(((2-aminoquinolin-7-yl)oxy)methyl)-3-vinyltetrahydrofuran-3,4-diol] | 8.7 nM
Cc1ncnc2c1ccn2[C@@H]1O[C@H](COc2ccc3ccc(N)nc3c2)[C@@](C)(O)[C@H]1O [Example 10, (2R,3S,4R,5R)-2-(((2-aminoquinolin-7-yl)oxy)methyl)-3-methyl-5-(4-methyl-7H-pyrrolo[2,3-d]pyrimidin-7-yl)tetrahydrofuran-3,4-diol] | 1.1 nM
COC[C@H]1O[C@@H](n2ccc3c(N)ncnc32)[C@H](O)[C@]1(C)O [Example 19, (2R,3S,4R,5R)-5-(4-amino-7H-pyrrolo[2,3-d]pyrimidin-7-yl)-2-(methoxymethyl)-3-methyltetrahydrofuran-3,4-diol] | 1440 nM
C[C@@]1(O)[C@@H](COc2ccccc2)O[C@@H](n2ccc3c(N)ncnc32)[C@@H]1O [Example 20, (2R,3S,4R,5R)-5-(4-amino-7H-pyrrolo[2,3-d]pyrimidin-7-yl)-3-methyl-2-(phenoxymethyl)tetrahydrofuran-3,4-diol] | 14300 nM
C[C@@]1(O)[C@@H](COc2cccc(NC(N)=O)c2)O[C@@H](n2ccc3c(N)ncnc32)[C@@H]1O [Example 21, 1-(3-(((2R,3S,4R,5R)-5-(4-amino-7H-pyrrolo[2,3-d]pyrimidin-7-yl)-3,4-dihydroxy-3-methyltetrahydrofuran-2-yl)methoxy)phenyl)urea] | 7840 nM
CO/N=c1/nc[nH]c2c1ccn2[C@@H]1O[C@H]([C@H](O)c2ccc(Cl)c(Cl)c2)[C@@](C)(O)[C@H]1O [Example 37, 7-((2R,3R,4S,5R)-5-((R)-(3,4-dichlorophenyl)(hydroxy)methyl)-3,4-dihydroxy-4-methyltetrahydrofuran-2-yl)-1,7-dihydro-4H-pyrrolo[2,3-d]pyrimidin-4-one O-methyl oxime] | 428 nM
CNc1ncnc2c1ccn2[C@@H]1O[C@H](CSC)[C@@](C)(O)[C@H]1O [Example 40, (2S,3S,4R,5R)-3-methyl-5-(4-(methylamino)-7H-pyrrolo[2,3-d]pyrimidin-7-yl)-2-((methylthio)methyl)tetrahydrofuran-3,4-diol] | 14100 nM
C[C@@]1(O)[C@@H](COc2cccc(NC(N)=O)c2)O[C@@H](n2ccc3c(Cl)ncnc32)[C@@H]1O [Example 41, 1-(3-(((2R,3S,4R,5R)-5-(4-chloro-7H-pyrrolo[2,3-d]pyrimidin-7-yl)-3,4-dihydroxy-3-methyltetrahydrofuran-2-yl)methoxy)phenyl)urea] | 200000 nM
C[C@@]1(O)[C@@H](C(=O)Nc2cccc(CN)c2)O[C@@H](n2ccc3c(Cl)ncnc32)[C@@H]1O [Example 42, (2S,3S,4R,5R)-N-(3-(aminomethyl)phenyl)-5-(4-chloro-7H-pyrrolo[2,3-d]pyrimidin-7-yl)-3,4-dihydroxy-3-methyltetrahydrofuran-2-carboxamide] | 9100 nM
C[C@@]1(O)[C@@H](C(=O)Nc2cccc(CN)c2)O[C@@H](n2ccc3c(N)ncnc32)[C@@H]1O [Example 43, (2S,3S,4R,5R)-5-(4-amino-7H-pyrrolo[2,3-d]pyrimidin-7-yl)-N-(3-(aminomethyl)phenyl)-3,4-dihydroxy-3-methyltetrahydrofuran-2-carboxamide] | 825 nM
CO/N=c1\[nH]cnc2c1ccn2[C@@H]1O[C@H]([C@H](O)c2ccc(Cl)cc2)[C@@](C)(O)[C@H]1O [Example 44, (Z)-7-((2R,3R,4S,5R)-5-((R)-(4-chlorophenyl)(hydroxy)methyl)-3,4-dihydroxy-4-methyltetrahydrofuran-2-yl)-3,7-dihydro-4H-pyrrolo[2,3-d]pyrimidin-4-one O-methyl oxime] | 3480 nM
CO/N=c1\[nH]cnc2c1ccn2[C@@H]1O[C@H](COc2ccc3ccc(NOC)nc3c2)[C@@](C)(O)[C@H]1O [Example 45, (Z)-7-((2R,3R,4S,5R)-3,4-dihydroxy-5-(((2-(methoxyamino)quinolin-7-yl)oxy)methyl)-4-methyltetrahydrofuran-2-yl)-3,7-dihydro-4H-pyrrolo[2,3-d]pyrimidin-4-one O-methyl oxime] | 11500 nM
C[C@@]1(O)[C@@H]([C@H](O)c2ccc(Cl)cc2)O[C@@H](n2ccc3/c(=N/O)[nH]cnc32)[C@@H]1O [Example 46, (Z)-7-((2R,3R,4S,5R)-5-((R)-(4-chlorophenyl)(hydroxy)methyl)-3,4-dihydroxy-4-methyltetrahydrofuran-2-yl)-3,7-dihydro-4H-pyrrolo[2,3-d]pyrimidin-4-one oxime] | 92 nM
C[C@@]1(O)[C@@H](Cc2ccc3c(c2)OCO3)O[C@@H](n2ccc3c(N)ncnc32)[C@@H]1O [Example 49, (2R,3S,4R,5R)-5-(4-amino-7H-pyrrolo[2,3-d]pyrimidin-7-yl)-2-(benzo[d][1,3]dioxol-5-ylmethyl)-3-methyltetrahydrofuran-3,4-diol] | 229 nM
C[C@@]1(O)[C@@H](Cc2ccc(Cl)c(Cl)c2)O[C@@H](n2ccc3cncnc32)[C@@H]1O [Example 51, (2R,3S,4R,5R)-2-(3,4-dichlorobenzyl)-3-methyl-5-(7H-pyrrolo[2,3-d]pyrimidin-7-yl)tetrahydrofuran-3,4-diol] | 404 nM
C[C@@]1(O)[C@@H](COc2ccc3cccnc3c2)O[C@@H](n2ccc3c(N)ncnc32)[C@@H]1O [Example 53, (2R,3S,4R,5R)-5-(4-amino-7H-pyrrolo[2,3-d]pyrimidin-7-yl)-3-methyl-2-((quinolin-7-yloxy)methyl)tetrahydrofuran-3,4-diol] | 5.8 nM
Cc1ncnc2c1ccn2[C@@H]1O[C@H](COc2ccc3cccnc3c2)[C@@](C)(O)[C@H]1O [Example 54, (2R,3S,4R,5R)-3-methyl-5-(4-methyl-7H-pyrrolo[2,3-d]pyrimidin-7-yl)-2-((quinolin-7-yloxy)methyl)tetrahydrofuran-3,4-diol] | 198 nM
Cc1ncnc2c1ccn2[C@@H]1O[C@H]([C@H](O)c2ccc(C(C)C)cc2)[C@@](C)(O)[C@H]1O [Example 59, (2R,3S,4R,5R)-2-((R)-hydroxy(4-isopropylphenyl)methyl)-3-methyl-5-(4-methyl-7H-pyrrolo[2,3-d]pyrimidin-7-yl)tetrahydrofuran-3,4-diol] | 399 nM
Cc1ncnc2c1ccn2[C@@H]1O[C@H]([C@H](O)c2ccc(OC(F)(F)F)cc2)[C@@](C)(O)[C@H]1O [Example 60, (2R,3S,4R,5R)-2-((R)-hydroxy(4-(trifluoromethoxy)phenyl)methyl)-3-methyl-5-(4-methyl-7H-pyrrolo[2,3-d]pyrimidin-7-yl)tetrahydrofuran-3,4-diol] | 368 nM
Cc1ncnc2c1ccn2[C@@H]1O[C@H]([C@H](O)c2ccc(F)c(C(F)(F)F)c2)[C@@](C)(O)[C@H]1O [Example 61, (2R,3S,4R,5R)-2-((R)-(4-fluoro-3-(trifluorometh-yl)phenyl)(hydroxy)methyl)-3-methyl-5-(4-methyl-7H-pyrrolo[2,3-d]pyrimidin-7-yl)tetrahydrofuran-3,4-diol] | 16 nM
